Assay results from US20260325605A1, “INHIBITORS” (Zealand Pharma A/S, priority 2022, published 2026).
Read-outs that look alike come from different tables or passages of the source.

Columns and labels:
Kv1.3 = biological target: T1, Kv1.3 (Homo sapiens, UniProt P22001); assay: Patch clamp assay (QPatch), Kv1.3; assay type: cell-based; conditions: CHO cells stably expressing human Kv1.3, read-out: Potency IC50, Kv1.3
T1 construct: expressed in transfected cells

Kv1.1 = biological target: T2, Kv1.1 (Homo sapiens, UniProt Q09470); assay: Patch clamp assay (QPatch), Kv1.1; assay type: cell-based; conditions: for IC50: QPatch, CHO cells stably expressing human Kv1.1, read-out: Potency IC50, Kv1.1; for Selectivity Kv1.1/Kv1.3: ratio of IC50 Kv1.1/Kv1.3
T2 construct: expressed in transfected cells
T2 sequence (Q09470 whole entry): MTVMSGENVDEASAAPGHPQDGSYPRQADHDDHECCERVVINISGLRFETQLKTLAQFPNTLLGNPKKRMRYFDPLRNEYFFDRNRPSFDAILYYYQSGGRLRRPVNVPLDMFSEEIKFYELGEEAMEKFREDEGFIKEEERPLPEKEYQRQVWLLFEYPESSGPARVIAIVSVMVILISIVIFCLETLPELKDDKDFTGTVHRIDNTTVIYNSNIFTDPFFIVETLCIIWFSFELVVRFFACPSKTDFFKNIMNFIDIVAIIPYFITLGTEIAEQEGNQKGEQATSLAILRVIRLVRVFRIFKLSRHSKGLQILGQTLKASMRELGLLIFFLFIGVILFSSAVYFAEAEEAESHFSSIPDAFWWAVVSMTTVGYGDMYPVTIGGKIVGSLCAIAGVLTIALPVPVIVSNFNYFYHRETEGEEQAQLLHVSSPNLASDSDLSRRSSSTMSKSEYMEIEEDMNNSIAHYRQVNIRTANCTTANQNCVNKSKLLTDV

Kv1.2 = biological target: T3, Kv1.2 (Homo sapiens, UniProt P16389); assay: Patch clamp assay (QPatch), Kv1.2; assay type: cell-based; conditions: for IC50: QPatch, CHO cells stably expressing human Kv1.2, read-out: Potency IC50, Kv1.2; for Selectivity Kv1.2/Kv1.3: ratio of IC50 Kv1.2/Kv1.3
T3 construct: expressed in transfected cells
T3 sequence (P16389 whole entry): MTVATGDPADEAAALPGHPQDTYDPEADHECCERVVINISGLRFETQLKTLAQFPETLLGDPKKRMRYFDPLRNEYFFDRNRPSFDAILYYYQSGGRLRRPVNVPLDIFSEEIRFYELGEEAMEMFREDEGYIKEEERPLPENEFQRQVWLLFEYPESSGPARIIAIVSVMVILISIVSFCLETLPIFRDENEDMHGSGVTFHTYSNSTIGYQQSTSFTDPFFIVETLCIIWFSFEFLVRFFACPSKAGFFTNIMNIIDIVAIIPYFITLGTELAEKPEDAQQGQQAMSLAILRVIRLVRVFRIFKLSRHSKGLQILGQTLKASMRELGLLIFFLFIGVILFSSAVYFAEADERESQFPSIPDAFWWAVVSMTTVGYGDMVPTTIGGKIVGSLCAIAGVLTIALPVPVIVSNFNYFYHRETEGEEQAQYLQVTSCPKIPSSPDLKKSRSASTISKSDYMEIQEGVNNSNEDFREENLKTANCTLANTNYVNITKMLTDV
Procedure: (§1) Selectivity of Kv1.3 inhibitor peptides for Kv1.3 over other potassium ion channels (Kv1.1, Kv1.2 and Kv1.6) was determined using patch clamp assay.
(§2) Chinese Hamster Ovary (CHO) cell lines stably expressing exogenous human α-subunits of each potassium ion channel were grown and passaged under standard culture conditions.
(§3) The automated, chip-based planar patch clamp device QPatch® was used to quantitate the ionic currents. All recordings were made in the conventional whole-cell configuration after establishment of gigaohm seals. […] During experiments 0.1% (v/v) BSA was included as a vehicle in all external recording solutions. Currents were elicited from a holding potential of −80 mV using a voltage protocol, which shifted the voltage to 30 mV for 500 ms every 15 s.
(§4) Concentration-response relationships were established by cumulatively applying seven escalating concentrations of test sample to an individual cell with a recording period of 2 min per compound application.
(§5) The efficacy was determined as the mean charge for the last three sweeps at the end of each concentration application period from the cursor positions. The percent inhibition for each test dose application period was calculated as the reduction in mean cursor value (charge) relative to the cursor value measured at the end of the vehicle period and used to calculate the IC50 from the concentration response curve.

Kv1.6 = biological target: T4, Kv1.6 (Homo sapiens, UniProt P17658); assay: Patch clamp assay (QPatch), Kv1.6; assay type: cell-based; conditions: for IC50: QPatch, CHO cells stably expressing human Kv1.6, read-out: Potency IC50, Kv1.6; for Selectivity Kv1.6/Kv1.3: ratio of IC50 Kv1.6/Kv1.3
T4 construct: expressed in transfected cells
T4 sequence (P17658 whole entry): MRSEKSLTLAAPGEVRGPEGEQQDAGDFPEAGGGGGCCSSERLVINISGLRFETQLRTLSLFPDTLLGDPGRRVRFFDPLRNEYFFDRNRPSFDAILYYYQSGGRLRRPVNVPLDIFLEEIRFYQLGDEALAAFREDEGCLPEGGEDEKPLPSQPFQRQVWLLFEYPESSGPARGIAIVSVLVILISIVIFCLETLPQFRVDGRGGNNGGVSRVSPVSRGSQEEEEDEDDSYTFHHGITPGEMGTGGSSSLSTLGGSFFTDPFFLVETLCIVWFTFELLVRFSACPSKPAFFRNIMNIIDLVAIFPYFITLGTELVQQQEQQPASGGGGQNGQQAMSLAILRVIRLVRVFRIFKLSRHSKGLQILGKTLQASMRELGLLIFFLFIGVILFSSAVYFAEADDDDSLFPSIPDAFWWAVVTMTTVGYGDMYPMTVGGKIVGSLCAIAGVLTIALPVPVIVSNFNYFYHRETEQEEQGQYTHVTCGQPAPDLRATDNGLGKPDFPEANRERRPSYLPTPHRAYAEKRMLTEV
Procedure: as §1, §2, §3, §4, §5

[1] = test system: human peripheral blood mononuclear cells (PBMCs); assay: Example 3a: IL-2 release from anti-CD3 stimulated human PBMCs; assay type: cell-based; conditions: for IC50: human PBMCs, 5 donors, anti-CD3 0.5 μg/mL, geometric mean, at least 4 replicates, read-out: anti-CD3 PBMC/ IL-2 IC50; for comparison of IC50 (IL-2 secretion) with ShK186 / Moka1: in words
Procedure: Human peripheral blood mononuclear cells (PBMCs) were used to assess the effects of Kv1.3 inhibitor peptides on T-cell activation as determined by IL-2 (cytokine) release after stimulation with anti-CD3.
Human PBMCs were obtained from Precision for Medicine (Frederick, MD). Cells from 5 donors were used. Plate-bound anti-CD3 was used to stimulate bulk T cells in the PBMC preparations. Briefly, 96-well plates were coated with anti-CD3 antibody for 2 hrs at 37° C., using 50 μL of a 0.5 μg/mL anti-CD3 solution diluted in 1×PBS. Thereafter the plates were washed twice.
Cyclosporin A (1 ug/ml) and Vm24 peptide (100 nM) were used as positive controls. Finally, 1×10^5 PBMCs were added to each well in a volume of 100 μL, giving a final volume of 200 μL per well. The plates were incubated for 20-24 hours in a 37° C./5% CO2 incubator. After centrifugation of the plates, 25 μl supernatant was transferred to IL-2 detection plates (MSD Human IL-2 Tissue Culture Kit, cat #K151AHB-2) and IL-2 was measures as described by the manufacturer (Meso Scale Discovery, Rockville, Maryland, USA).
All values derive from at least 4 replicates.

[2] = test system: T-cell activation in rat whole blood; assay: Example 4: IL-17A release in thapsigargin stimulated rat whole blood; assay type: cell-based, rat (Lewis or Sprague-Dawley); conditions: 24 Hr, at least 2 replicates, unit inferred, read-out: IC50 (inhibition of IL-17A release)
In short: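 Heparinised whole blood from naïve Lewis or Sprague-Dawley rats preincubated ≥5 min at RT with peptide, then stimulated with thapsigargin (40 μM stock added as one quarter of well volume) for 24 h at 37 °C. Supernatant IL-17A measured by ELISA; IC50 from curves normalised to stimulated and unstimulated controls, ≥2 replicates.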

[3] = test system: human peripheral blood mononuclear cells (PBMCs); assay: Example 3b: IL-2 release from anti-CD3 stimulated human PBMCs; assay type: cell-based; conditions: 5 donors, anti-CD3 1 μg/ml, geometric mean, at least 6 replicates
Procedure: Human peripheral blood mononuclear cells (PBMCs) were used to assess the effects of Kv1.3 inhibitor peptides on T-cell activation as determined by IL-2 release after stimulation with anti-CD3.
Human PBMCs were obtained from Precision for Medicine (Frederick, MD). Cells from 5 donors were used. Plate-bound anti-CD3 was used to stimulate bulk T cells in the PBMC preparations. Briefly, 96-well plates were coated with anti-CD3 antibody for app. 16 hours at 5° C., using 50 μl of a 1 μg/ml anti-CD3 solution diluted in PBS. Thereafter the plates were washed twice.
Peptides were subsequently diluted in medium (RPMI 1640 with Glutamax-I containing, 10% v/v Fetal Bovine Serum, 1% v/v penicillin-streptomycin Solution) and added in a volume of 50 μl. The peptides indicated in Table 4b were used at concentrations ranging from 0.3 pM to 1000 nM (half log dilutions, starting concentrations varying). Cyclosporin A (1 μg/ml) and Vm24 peptide (100 nM) were used as positive controls.
Finally, 50,000 PBMCs in the same medium were added to each well in a volume of 50 μl, giving a final volume of 100 μl per well. The plates were incubated for 20-24 hours in a 370C/5% CO2 incubator. After centrifugation of the plates, 25 μl supernatant was transferred to IL-2 detection plates (MSD Human IL-2 Tissue Culture Kit, cat #K151AHB-2) and IL-2 was measures as described by the manufacturer (Meso Scale Discovery, Rockville, Maryland, USA).
All values derive from at least 6 replicates.

[4] = test system: T-cell activation in human whole blood; assay: Example 5: IFN-g, IL-2 and IL-17A release in thapsigargin stimulated human whole blood; assay type: cell-based; conditions: 24 Hr, at least 2 replicate experiments
Text: Human whole blood was used to assess the potency of Kv1.3 inhibitor peptides on T-cell activation as determined by release of the cytokines IFN-g, IL-2 and IL-17A after stimulation with thapsigargin. Addition of thapsigargin activates a signalling cascade resulting in T cell proliferation and cytokine production, in which the Kv1.3 ion channel plays a key role. Activity of Kv1.3 inhibitors in human primary T cells can thus be measured in this experimental system.
Human whole blood was obtained from healthy blood donors and was collected after informed consent using Sodium Heparin blood sampling tubes (Becton, Dickinson and Company (BD), Cat #367876). Test peptides were diluted to 4× final testing concentrations in assay buffer (Dulbecco's Modified Eagle's medium (DMEM) with high glucose and GlutaMAX (3.97 mM L-alanine-L-glutamine) (Gibco Cat #61965026) supplemented with 25 mM HEPES buffer, 1 mM Sodium Pyruvate, 100 units/ml Penicillin, 100 μg/ml Streptomycin and 0.05% Casein from bovine milk (Sigma-Aldrich Cat #C4765)) and 25 μl was added to wells of a 96 well tissue culture plate. Then 50 μl human whole blood was added and incubated for minimum 5 minutes at room temperature to allow compound binding. Then 25 μl of 40 μM thapsigargin diluted in assay buffer was added to all wells of the assay plates to activate the cells, followed by incubation for 24 Hr at 37° C./5% CO2 in a humidified box. The assay plates were centrifuged for 10 min at 300 g at 4° C. and the supernatants were transferred to new plates. The concentrations of IFN-g, IL-2 and IL-17A released to the supernatants were measured using a tri-plex human cytokine detection kit (MSD Human U-Plex IFN-g, IL-2 and IL-17A kit; Meso Scale Discovery Cat #K15067L-2) and all three cytokines were measured using a MSD MESO QuickPlex SQ 120 instrument as described by the manufacturer (Meso Scale Discovery, Rockville, Maryland, USA).
To determine the potency of inhibition for the compounds, the cytokine concentration data were fitted using a three parameter logistic dose response model based on the formula Y=Bottom+(Top−Bottom)/(1+IC50/X), where Y is measured cytokine concentrations, X is compound concentrations and Top, bottom and IC50 are parameters fitted using the software Graphpad Prism version 5.04. The IC50 value calculated from the concentration response curve represents the compound concentration that gives an inhibition response halfway between the basal (Bottom) response and the maximal (Top) response.
All values are derived from at least 2 replicate experiments. All of the tested Kv1.3 blockers were able to inhibit cytokine production from human T cells present in human whole blood that was stimulated with thapsigargin.

[5] = Example 6: Pharmacokinetic characterisation after s.c. administration; assay type: in vivo, rat (Sprague Dawley or Wistar); conditions: rat, 70 nmol/kg; for AUCINF / Cmax: plasma; for T1/2: plasma terminal elimination half-life
Procedure: Sprague Dawley or Wistar rats (males with a body weight of approximately 250-350 g) were given a single subcutaneous (s.c.) injection of each peptide to be tested.
Following s.c. administration of the selected peptides (dose 70 nmol/kg, dosing volume either 2 or 5 mL/kg), blood samples were drawn at 15 min, 30 min, 45 min, 60 min, 90 min, 2 h, 3 h, 4 h post-dose. At each sampling time point, samples from the rats were drawn by sublingual bleeding or by tail cut. After last sampling the rats were sacrificed by O2/CO2 anaesthesia. The dosing vehicle was 10 mM phosphate, 0.8% NaCl, 0.05% Polysorbate 20 (pH 6.0).
Plasma samples were analyzed after solid phase extraction (SPE) by liquid chromatography mass spectrometry (LC-MS/MS). Mean plasma concentrations were used for calculation of the pharmacokinetic parameters using the non-compartmental approach in Phoenix WinNonlin 6.4 or a later version. […]. AUCinf is the area under the plasma concentration−time curve extrapolated to infinity (AUCinf=AUClast+Clast/λz, where Clast is the last observed plasma concentration). Cmax is the maximum observed concentration, occurring at Tmax.

[6] = read-out: anti-CD3 PBMC/IL-2 IC50

T1 sequence (P22001 whole entry): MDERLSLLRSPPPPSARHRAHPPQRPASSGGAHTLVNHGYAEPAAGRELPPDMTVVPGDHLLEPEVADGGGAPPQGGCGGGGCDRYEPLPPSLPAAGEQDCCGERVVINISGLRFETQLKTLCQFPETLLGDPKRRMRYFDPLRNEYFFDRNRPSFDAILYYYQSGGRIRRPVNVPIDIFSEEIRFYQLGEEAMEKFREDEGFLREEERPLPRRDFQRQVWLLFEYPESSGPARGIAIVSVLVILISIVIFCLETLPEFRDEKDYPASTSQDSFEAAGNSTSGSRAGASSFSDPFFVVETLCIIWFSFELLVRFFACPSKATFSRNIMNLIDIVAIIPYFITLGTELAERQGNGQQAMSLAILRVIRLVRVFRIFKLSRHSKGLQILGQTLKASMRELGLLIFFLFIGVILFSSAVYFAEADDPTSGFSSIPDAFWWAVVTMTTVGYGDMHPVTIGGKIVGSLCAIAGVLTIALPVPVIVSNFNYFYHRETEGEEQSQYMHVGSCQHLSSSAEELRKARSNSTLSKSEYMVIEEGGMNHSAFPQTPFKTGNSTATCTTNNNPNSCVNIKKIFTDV

Substance | IC50 (Kv1.3) [nM] | IC50 (Kv1.1) [nM] | Selectivity Kv1.1/Kv1.3 (Kv1.1) | IC50 (Kv1.2) [nM] | Selectivity Kv1.2/Kv1.3 (Kv1.2) | IC50 (Kv1.6) [nM] | Selectivity Kv1.6/Kv1.3 (Kv1.6) | IC50 [1] [nM] | IC50 [2] [nM] | IC50 [3, 6] [nM] | comparison of IC50 (IL-2 secretion) with ShK186 / Moka1 [1] | IC50 ([3]; listed as ShK186, read-out: anti-CD3 PBMC/IL-2 IC50) [nM] | IC50 ([4]; read-out: Average IC50, IFN-g) [nM] | IC50 ([4]; read-out: Average IC50, IL-2) [nM] | IC50 ([4]; read-out: Average IC50, IL-17A) [nM] | AUCINF [5] [µM·h] | Cmax [5] [nM] | T1/2 [5] [min]
H-NMDMRC(1)SASVEC(2)KQKC(3)LKAIGSRFGKC(1)MNKKC(2)KC(3)YPR-NH2 [Peptide 36] | 0.2 | > 3000 | >15000 | 18 | 88 | 192 | 963 | 0.1 | 2.5 |  |  |  |  |  |  |  |  | 
H-QMDMRC(1)SASVEC(2)KQKC(3)LKAIGSIFGKC(1)MNKKC(2)KC(3)YPR-OH [Peptide 1] | 0.38 | > 3000 | >7900 | 518 | 1364 | > 3000 | >7900 |  | 0.17 | 0.09 |  |  |  |  |  |  |  | 
H-NMDMRC(1)SASVEC(2)KQKC(3)LKAIGSIFGKC(1)[Nle]NKKC(2)KC(3)YPR-NH2 [Peptide 17] | 0.24 | > 3000 | >12600 | 133 | 561 | 2460 | 10360 | 0.05 |  |  |  |  |  |  |  |  |  | 
H-[phosphotyrosyl][8-Amino-3,6-dioxaoctanoyl]RSCIDTIPKSRCTAFQCKHSMKYRLSFCRKTCGTC-NH2 [ShK-186, reference compound] | 0.095 | 0.31 | 4.9 | 43 | 682 | 0.45 | 7.4 | 0.07 |  | 0.04 | significantly lower than Moka1 | 0.05 |  |  |  |  |  | 
H-NMDMRC(1)SASVEC(2)KQKC(3)LKAIGSIFGKC(1)MNKKC(2)KC(3)YPRRRTA-NH2 [Peptide 24] | 0.15 | 626 | 4280 | 28 | 191 | 215 | 1472 |  | 0.57 | 0.06 |  |  |  |  |  |  |  | 
H-INVKCSLPQQCIKPCKDAGMRFGKCMNKKCRCYS-OH [Moka1, reference compound] |  |  | >300 |  | 31 |  | >300 |  |  |  | less potent in inhibiting IL-2 secretion |  |  |  |  |  |  | 
H-P[Nle]D[Nle]RC(1)SASVEC(2)KQKC(3)LKAIGSIFGKC(1)[Nle]NKKC(2)KC(3)YPR-NH2 [Peptide 42] | 0.18 | > 3000 | >17100 | 939 | 5362 | > 3000 | >17100 |  | 0.98 | 0.03 |  |  | 0.046 | 0.03 | 0.058 |  |  | 
H-N[Nle]D[Nle]RC(1)SASVEC(2)KQSC(3)LKAIGSIFGKC(1)[Nle]NKKC(2)KC(3)YPR-NH2 [Peptide 49] | 0.37 | > 3000 | >8200 | > 3000 | >8200 | > 3000 | >8200 |  | 0.63 | 0.07 |  |  |  |  |  |  |  | 
H-C(1)SASVEC(2)KQKC(3)LKAIGSIFGKC(1)[Nle]NKKC(2)KC(3)YPR-NH2 [Peptide 108] | 0.43 | > 3000 | >7000 | > 3000 | >7000 | > 3000 | >7000 |  | 1.6 |  |  |  | 0.081 | 0.12 | 0.23 |  |  | 
H-NMDMRC(1)SASVEC(2)KQKC(3)LKAIGSIFGKC(1)MNKKC(2)KC(3)YPR-OH [Peptide 3] | 0.27 | > 3000 | >11300 | 409 | 1540 | > 3000 | >11300 |  | 1 | 0.06 |  |  | 0.058 | 0.022 | 0.044 | 0.0839 | 36.9 | 59.4
H-NMDMRC(1)SASVEC(2)AQKC(3)LKAIGSIFGKC(1)MNKKC(2)KC(3)YPR-NH2 [Peptide 31] | 0.14 | > 3000 | >22000 | 666 | 4897 | > 3000 | >22000 |  | 0.41 |  |  |  |  |  |  | 0.0467 | 33.3 | 44.4
H-NMDMRC(1)SASVEC(2)KQKC(3)LAAIGSIFGKC(1)MNKKC(2)KC(3)YPR-NH2 [Peptide 53] | 0.11 | > 3000 | >27500 | 88 | 803 | > 3000 | >27500 |  | 0.69 |  |  |  | 0.11 | 0.083 | 0.26 | 0.0485 | 31.2 | 53.4
H-NMDMRC(1)SASVEC(2)KVKC(3)LKAIGSIFGKC(1)MNKKC(2)KC(3)YPR-NH2 [Peptide 18] | 0.42 | > 3000 | >7200 | 66 | 159 | 912 | 2182 | 0.4 | 0.88 |  |  |  |  |  |  |  |  | 
H-NMDMRC(1)SASVEC(2)KQKC(3)LDAIGSIFGKC(1)MNKKC(2)KC(3)YPR-NH2 [Peptide 21] | 0.21 | > 3000 | >14300 | 99 | 471 | 2530 | 12045 | 0.1 | 1.2 |  |  |  |  |  |  |  |  | 
